Reference: patent US20200055817A1 (AbbVie Deutschland GmbH & Co. KG, priority 2016, published 2020)

Assays:
Format in all cases: cell-based
[1] = molecular target: T1, S1P4 (Homo sapiens, UniProt O95977); test: Aequorin assay, agonist potency, S1P4; conditions: agonist mode, aequorin luminescence
T1 sequence (O95977 1-384): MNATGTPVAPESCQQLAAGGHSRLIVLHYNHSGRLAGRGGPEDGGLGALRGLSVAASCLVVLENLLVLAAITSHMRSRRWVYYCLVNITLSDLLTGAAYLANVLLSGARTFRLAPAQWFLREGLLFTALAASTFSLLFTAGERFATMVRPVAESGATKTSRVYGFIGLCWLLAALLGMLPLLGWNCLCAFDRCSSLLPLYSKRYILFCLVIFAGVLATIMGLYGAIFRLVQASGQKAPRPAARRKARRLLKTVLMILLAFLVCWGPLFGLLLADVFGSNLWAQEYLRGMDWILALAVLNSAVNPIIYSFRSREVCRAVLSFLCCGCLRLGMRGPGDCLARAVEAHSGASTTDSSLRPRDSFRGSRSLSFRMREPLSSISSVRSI
Experimental: (§1) Agonistic activity was measured as described below.
(§2) 18 hours prior to the test, vials of frozen cells are quickly thawed in a 37° C. water bath, cells are recovered by centrifugation and resuspended in assay buffer (DMEM/HAM's F12 with HEPES, without phenol red+0.1% fatty acid-free BSA). Cells are gently agitated in suspension overnight at RT in presence of 5 μM of Coelenterazine h (Molecular Probes). On the day of the test, cells are diluted to their final working concentrations in assay buffer and agitated in suspension for 1 h at RT. Cells are then placed in the luminescence reader (Hamamatsu Functional Drug Screening System 6000, FDSS6000). During cells incubation, compounds are prepared in 100% DMSO, and subsequently diluted in assay buffer. Compounds are then dispensed in the assay plate (black, clear-bottom, 384-well plate). After binding of agonists to the human S1P receptor the intracellular calcium concentration increases and binding of calcium to the Aequorin/Coelenterazine complex leads to an oxidation reaction of coelenterazine, which results in the production of Aequorin, coelenteramide, CO2 and light (Dmax 469 nm). The luminescent response is dependent on the agonist concentration. For agonist testing, 30 μL of cell suspension are injected on 30 μL of test compound or reference agonist in the assay plate. The resulting emission of light is recorded for 90 seconds using the FDSS6000. Dose response curves with the reference compounds are performed before testing the compounds. S1P is the reference agonist and JTE-013 the reference antagonist for S1P2.
(§3) Luminescence data are integrated over the reading interval for agonist and antagonist modes. To standardize the emission of recorded light (determination of the “100% signal”) across plates and across different experiments, some of the wells contain 100 μM digitonin or a saturating concentration of ATP (20 μM). Plates also contain the reference agonist at a concentration equivalent to the EC80 obtained during the test validation and the EC100. Dose-response data from test compounds were analyzed with XLfit (IDBS) software using nonlinear regression applied to a sigmoidal dose-response model and the following equation: […]

[2] = molecular target: T2, human EDG8 (S1PR5) receptor (Homo sapiens, UniProt Q9H228); test: Aequorin assay, agonist potency, CHO-A21-EDG8#12 cells; conditions: agonist mode, aequorin luminescence; read-out: S1P5 EC50 range #
T2 construct: carries the transgenes human EDG8 (S1PR5) receptor (Acession number NP_110387.1); expressed in transfected cells; host or cells: CHO-A21-EDG8#12 (CHO clone co-expressing mitochondrial aequorin and chimaeric Gaqi5)
Experimental: as §1
(§4) Cell clone CHO-A21-Edg1#17 carries the transgenes human EDG1 (S1PR1) receptor (Accession number NP_001391.2), mitochondrially targeted Aequorin (active part corresponds to accession number 1SL8_A) and chimaeric Gaqi5=Gaq modified with the 5 C-terminal amino-acids replaced with those of the Gai protein (DCGLF). CHO-A2-S1P3 Mix is a cell pool ectopically expressing human EDG3 (S1PR3) receptor (Accession number NP_005217.2) mitochondrially targeted Aequorin (active part has a sequence similar to accession number AY601106.1) and GNA16 (Accession number NP_002059.3). Cell clone CHO-A21-EDG8#12 carries the transgenes human EDG8 (S1PR5) receptor (Acession number NP_110387.1), mitochondrially expressed Aequorin (active part corresponds to accession number 1SL8_A) and chimaeric Gaqi5 (Gaq modified to present the 5 last amino-acids of the Gai protein “DCGLF”; see above). Cells are grown to mid-log phase in culture medium (HAM's F12, 10% FBS, 100 IU/mL penicillin, 100 μg/mL streptomycin, 250 μg/mL Zeocin, 400 μg/mL G418). 18 hours prior to frozen cells preparation, the medium is changed to remove the antibiotics.
as §2, §3

[3] = molecular target: T3, human EDG1 (S1PR1) receptor (Homo sapiens, UniProt P21453); test: Aequorin assay, agonist potency, CHO-A21-Edg1#17 cells; conditions: agonist mode, aequorin luminescence; read-out: S1P1 EC50
T3 construct: expressed in transfected cells; host or cells: CHO-A21-Edg1#17 (CHO clone co-expressing mitochondrial aequorin and chimaeric Gaqi5)
Experimental: as §1, §4, §2, §3

T2 sequence (Q9H228 whole entry): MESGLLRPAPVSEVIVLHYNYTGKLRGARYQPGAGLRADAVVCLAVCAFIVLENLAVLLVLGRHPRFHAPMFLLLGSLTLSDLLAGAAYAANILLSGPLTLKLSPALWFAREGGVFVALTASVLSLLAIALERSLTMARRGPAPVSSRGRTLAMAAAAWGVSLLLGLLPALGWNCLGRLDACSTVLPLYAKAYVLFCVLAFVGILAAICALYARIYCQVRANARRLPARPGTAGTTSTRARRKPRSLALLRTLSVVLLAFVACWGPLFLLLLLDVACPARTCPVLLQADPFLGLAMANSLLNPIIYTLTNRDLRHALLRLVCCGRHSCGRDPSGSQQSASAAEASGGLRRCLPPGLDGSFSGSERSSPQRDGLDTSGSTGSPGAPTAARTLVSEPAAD
T3 sequence (P21453 whole entry): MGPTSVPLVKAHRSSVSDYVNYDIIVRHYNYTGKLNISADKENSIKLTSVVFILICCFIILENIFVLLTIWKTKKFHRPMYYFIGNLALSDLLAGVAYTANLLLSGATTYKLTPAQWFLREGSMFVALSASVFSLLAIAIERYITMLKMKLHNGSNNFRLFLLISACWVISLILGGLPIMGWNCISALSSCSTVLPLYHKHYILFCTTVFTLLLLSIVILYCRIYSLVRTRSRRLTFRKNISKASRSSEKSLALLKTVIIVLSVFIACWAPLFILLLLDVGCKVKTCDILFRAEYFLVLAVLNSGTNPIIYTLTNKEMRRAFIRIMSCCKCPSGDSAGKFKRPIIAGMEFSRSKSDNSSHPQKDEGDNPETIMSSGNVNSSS

Structure (SMILES)	EC50 [1]	EC50 [2]	EC50 [3]
O=C(O)C1(CN2CC3(Cc4ccc(OCc5ccc(OCC6CC6)cc5)cc4C3)C2)CC1 [Example 128, 1-((5′-((4-(cyclopropylmethoxy)benzyl)oxy)-1′,3′-dihydrospiro[azetidine-3,2′-inden]-1-yl)methyl)cyclopropanecarboxylic acid]	> 1000 nM	1000 to 10000 nM	> 1000 nM
O=C(O)CN1CC2(Cc3ccc(OC4CCc5cc(Br)cc(F)c54)cc3C2)C1 (stereo not drawn) [Example 68, 2-(5′-((5-bromo-7-fluoro-2,3-dihydro-1H-inden-1-yl)oxy)-1′,3′-dihydrospiro[azetidine-3,2′-inden]-1-yl)acetic acid]	< 1000 nM	≤ 10 nM	> 1000 nM
O=C(O)CN1CC2(Cc3ccc(C#Cc4ccccc4Cl)cc3O2)C1 [Example 153, 2-(6′-((2-chlorophenyl)ethynyl)-3′H-spiro[azetidine-3,2′-benzofuran]-1-yl)acetic acid]	< 1000 nM	≤ 10 nM	> 1000 nM
O=C(O)C1(CN2CC3(Cc4ccc(OCc5ccccc5Cl)cc4C3)C2)CC1 [Example 141, 1-((5′-((2-chlorobenzyl)oxy)-1′,3′-dihydrospiro[azetidine-3,2′-inden]-1-yl)methyl)cyclopropanecarboxylic acid]	< 1000 nM	1000 to 10000 nM	> 1000 nM
CCOc1cc(F)c(COc2ccc3c(c2)CC2(C3)CN(C3CC(C(=O)O)C3)C2)c(F)c1 (stereo not drawn) [Example 85, 3-(5′-((4-ethoxy-2,6-difluorobenzyl)oxy)-1′,3′-dihydrospiro[azetidine-3,2′-inden]-1-yl)cyclobutanecarboxylic acid]	< 1000 nM	1000 to 10000 nM	> 1000 nM
CCOc1ccc(COc2ccc3c(c2)CC2(C3)CN(CC3(C(=O)O)CC3)C2)cc1 [Example 35, 1-((5′-((4-ethoxybenzyl)oxy)-1′,3′-dihydrospiro[azetidine-3,2′-inden]-1-yl)methyl)cyclopropanecarboxylic acid]	< 1000 nM	1000 to 10000 nM	> 1000 nM
O=C(O)CN1CC2(Cc3ccc(OC4Cc5ccccc5C4)cc3C2)C1 [Example 73, 2-(5′-((2,3-dihydro-1H-inden-2-yl)oxy)-1′,3′-dihydrospiro[azetidine-3,2′-inden]-1-yl)acetic acid]	< 1000 nM	100 to 1000 nM	> 1000 nM
O=C(O)C1CC(N2CC3(Cc4ccc(C#Cc5ccc(OC6CCCC6)nc5)cc4C3)C2)C1 (stereo not drawn) [Example 95, 3-(5′-((6-(cyclopentyloxy)pyridin-3-yl)ethynyl)-1′,3′-dihydrospiro[azetidine-3,2′-inden]-1-yl)cyclobutanecarboxylic acid]	< 1000 nM	≤ 10 nM	< 1000 nM
O=C(O)CN1CC2(Cc3ccc(C#CC4CCCCC4)cc3O2)C1 [Example 150, 2-(6′-(cyclohexylethynyl)-3′H-spiro[azetidine-3,2′-benzofuran]-1-yl)acetic acid]	< 1000 nM	≤ 10 nM	> 1000 nM
O=C(O)C1CC(N2CC3(Cc4ccc(OC5CCc6ccccc65)cc4C3)C2)C1 (stereo not drawn) [Example 104, 3-(5′-((2,3-dihydro-1H-inden-1-yl)oxy)-1′,3′-dihydrospiro[azetidine-3,2′-inden]-1-yl)cyclobutanecarboxylic acid]	< 1000 nM	≤ 10 nM	> 1000 nM
O=C(O)CN1CC2(Cc3ccc(C#Cc4ccc(Cl)cc4)cc3O2)C1 [Example 149, 2-(6′-((4-chlorophenyl)ethynyl)-3′H-spiro[azetidine-3,2′-benzofuran]-1-yl)acetic acid]	> 1000 nM	1000 to 10000 nM	> 1000 nM
O=C(O)C1(CN2CC3(Cc4ccc(C#Cc5ccc(OC6CCCC6)nc5)cc4C3)C2)CC1 [Example 116, 1-((5′-((6-(cyclopentyloxy)pyridin-3-yl)ethynyl)-1′,3′-dihydrospiro[azetidine-3,2′-inden]-1-yl)methyl)cyclopropanecarboxylic acid]	> 1000 nM	10 to 100 nM	> 1000 nM

The next lines start with the values.

EC50 [1]	EC50 [2]	EC50 [3]	Structure (SMILES)
< 1000 nM	10 to 100 nM	> 1000 nM	O=C(O)C1(CN2CC3(Cc4ccc(OCCc5ccccc5C(F)(F)F)cc4C3)C2)CC1 [Example 56, 1-((5′-(2-(trifluoromethyl)phenethoxy)-1′,3′-dihydrospiro[azetidine-3,2′-inden]-1-yl)methyl)cyclopropanecarboxylic acid]
< 1000 nM	1000 to 10000 nM	> 1000 nM	O=C(O)C1(CN2CC3(Cc4ccc(OCc5ccc(Cl)cc5Cl)cc4C3)C2)CC1 [Example 38, 1-((5′-((2,4-dichlorobenzyl)oxy)-1′,3′-dihydrospiro[azetidine-3,2′-inden]-1-yl)methyl)cyclopropanecarboxylic acid]
< 1000 nM	1000 to 10000 nM	> 1000 nM	O=C(O)C1(CN2CC3(Cc4ccc(OCc5cc(Cl)ccc5Cl)cc4C3)C2)CC1 [Example 36, 1-((5′-((2,5-dichlorobenzyl)oxy)-1′,3′-dihydrospiro[azetidine-3,2′-inden]-1-yl)methyl)cyclopropanecarboxylic acid compound with acetic acid (1:1)]
< 1000 nM	≤ 10 nM	> 1000 nM	O=C(O)CN1CC2(Cc3ccc(OC4CCc5cc(Cl)cc(Cl)c54)cc3C2)C1 (stereo not drawn) [Example 69, 2-(5′-((5,7-dichloro-2,3-dihydro-1H-inden-1-yl)oxy)-1′,3′-dihydrospiro[azetidine-3,2′-inden]-1-yl)acetic acid]
< 1000 nM	100 to 1000 nM	> 1000 nM	CCc1ccc(COc2ccc3c(c2)CC2(C3)CN(CC(=O)O)C2)c(Cl)c1 [Example 4, 2-(5′-((2-chloro-4-ethylbenzyl)oxy)-1′,3′-dihydrospiro[azetidine-3,2′-inden]-1-yl)acetic acid]
< 1000 nM	10 to 100 nM	> 1000 nM	O=C(O)C1CC(N2CC3(Cc4ccc(OCc5cc(Cl)ccc5Cl)cc4C3)C2)C1 (stereo not drawn) [Example 93, 3-(5′-((2,5-dichlorobenzyl)oxy)-1′,3′-dihydrospiro[azetidine-3,2′-inden]-1-yl)cyclobutanecarboxylic acid]
< 1000 nM	≤ 10 nM	< 1000 nM	CCOc1ccc(C#Cc2ccc3c(c2)CC2(C3)CN(CC(=O)O)C2)cc1 [Example 77, 2-(5′-((4-ethoxyphenyl)ethynyl)-1′,3′-dihydrospiro[azetidine-3,2′-inden]-1-yl)acetic acid]
< 1000 nM	1000 to 10000 nM	> 1000 nM	O=C(O)C1(CN2CC3(Cc4ccc(OCCOc5ccccc5Cl)cc4C3)C2)CC1 [Example 145, 1-((5′-(2-(2-chlorophenoxy)ethoxy)-1′,3′-dihydrospiro[azetidine-3,2′-inden]-1-yl)methyl)cyclopropanecarboxylic acid]
< 1000 nM	100 to 1000 nM	> 1000 nM	O=C(O)C1(CN2CC3(Cc4ccc(OCCc5ccccc5Cl)cc4C3)C2)CC1 [Example 58, 1-((5′-(2-chlorophenethoxy)-1′,3′-dihydrospiro[azetidine-3,2′-inden]-1-yl)methyl)cyclopropanecarboxylic acid]
